Data set [1] is described as follows: Metabolic stability assay in rat liver microsomes. In kind it is in vitro ADME. As to conditions: pH 7.4, 37° C., read-out: rCLint. The procedure: (§1) A solution of 500 μl of 100 μM compound in DMSO is incubated with human or rat liver microsomes (843 μl of microsomes of 0.5618 mg/mL in 30 ml 0.1 M KH2PO4 buffer pH7.4) at 37° C. for 10 min in a 96-deep well plate. NADPH (46 μL) at a concentration of 8.33 mg/ml in 100 mM KH2PO4 buffer pH 7.4 is added to start the reaction. The reaction mixtures are transferred to a 384-well plate containing acetonitrile to quench the reaction at time 0, 10, 20, 30 minutes. The 384 well plate is centrifuged for 30 min at 9000 g, at 4° C., from which samples are analyzed by LC/MS (model: XDB Eclipse C18). Three references are analyzed by LC/MS as a positive control. Data are processed following a standard procedure. The metabolic stability of assayed compounds is expressed as μL/min/mg
On the technique in general: Microsomes from liver hold many membrane-bound enzymes, among them those of drug oxidation.

Data set [2] can be described thus: Metabolic stability assay in human liver microsomes. In kind it is in vitro ADME. As to the method: as §1
The nature of data set [3]: Assay condition for measuring solubility. In kind it is physicochemical. The following applies: for solubility at 24 h: thermodynamic from solid, aqueous, sodium phosphate buffer pH 7.4, 24 h, 25° C. The procedure: A 30 mM DMSO stock is prepared of the sample and then a 25 μL aliquot is added to a 96-well plate and genevac at 40° C. for 4 hours. To the genevac compound add 250 μL of sodium phosphate buffer (pH 7.4) and then mix at 1200 rpm for 24 h using an Eppendorf Thermomixer at 25° C. After mixing solution is transferred to a 96-well Whatman GF/B filter plate and then filtered under vacuum. The supernatant is then injected onto the LC/MS for analysis and quantitation is performed using a 1-point calibration for the compound of interest.

Data set [4] has as its target T1, Human CB1 receptor (Homo sapiens, UniProt P21554).
T1 construct: purchased Receptor Biology
Kind of data set: hCB1 receptor binding (3H-CP55,940 displacement). As to conditions: Ki=IC50/(1+[rad]/Kd). The procedure: Human CB1 receptor from Receptor Biology (hCB1) or human CB2 receptor from BioSignal (hCB2) membranes are thawed at 37° C., passed 3 times through a 25-gauge blunt-end needle, diluted in the cannabinoid binding buffer (50 mM Tris, 2.5 mM EDTA, 5 mM MgCl2, and 0.5 mg/mL BSA fatty acid free, pH 7.4) and aliquots containing the appropriate amount of protein are distributed in 96-well plates. The IC50 of the compounds of the invention at hCB1 and hCB2 are evaluated from 10-point dose-response curves done with ^3H-CP55,940 at 20000 to 25000 dpm per well (0.17-0.21 nM) in a final volume of 300 μl. The total and non-specific binding are determined in the absence and presence of 0.2 μM of HU210 respectively. The plates are vortexed and incubated for 60 minutes at room temperature, filtered through Unifilters GF/B (presoaked in 0.1% polyethyleneimine) with the Tomtec or Packard harvester using 3 mL of wash buffer (50 mM Tris, 5 mM MgCl2, 0.5 mg BSA pH 7.0). The filters are dried for 1 hour at 55° C. The radioactivity (cpm) is counted in a TopCount (Packard) after adding 65 μl/well of MS-20 scintillation liquid.
Based on the above assays, the dissociation constant (Ki) for a particular compound of the invention towards a particular receptor is determined using the following equation: Ki=IC50/(1+[rad]/Kd), […]

The target of data set [5] is T1, Human CB1 receptor. The experiment in a line: hCB1 GTPγS binding. The class given is biochemical. As to the method:
Human CB1 receptor from Receptor Biology (hCB1) or human CB2 receptor membranes (BioSignal) are thawed at 37° C., passed 3 times through a 25-gauge blunt-end needle and diluted in the GTPγS binding buffer (50 mM Hepes, 20 mM NaOH, 100 mM NaCl, 1 mM EDTA, 5 mM MgCl2, pH 7.4, 0.1% BSA). The EC50 and Emax of the compounds of the invention are evaluated from 10-point dose-response curves done in 300 μl with the appropriate amount of membrane protein and 100000-130000 dpm of GTPg^35S per well (0.11-0.14 nM). The basal and maximal stimulated binding is determined in absence and presence of 1 μM (hCB2) or 10 μM (hCB1) Win 55,212-2 respectively. The membranes are pre-incubated for 5 minutes with 56.25 μM (hCB2) or 112.5 μM (hCB1) GDP prior to distribution in plates (15 μM (hCB2) or 30 μM (hCB1) GDP final). The plates are vortexed and incubated for 60 minutes at room temperature, filtered on Unifilters GF/B (presoaked in water) with the Tomtec or Packard harvester using 3 ml of wash buffer (50 mM Tris, 5 mM MgCl2, 50 mM NaCl, pH 7.0). The filters are dried for 1 hour at 55° C. The radioactivity (cpm) is counted in a TopCount (Packard) after adding 65 μl/well of MS-20 scintillation liquid. […]
In general terms: Binding of GTPγS marks nucleotide exchange on a G protein.

Where [6] appears, read: pH 7.4, 37° C., read-out: hCLint.

Values after ≈ are worked out from the molar mass of the structure shown.

T1 sequence (P21554 whole entry): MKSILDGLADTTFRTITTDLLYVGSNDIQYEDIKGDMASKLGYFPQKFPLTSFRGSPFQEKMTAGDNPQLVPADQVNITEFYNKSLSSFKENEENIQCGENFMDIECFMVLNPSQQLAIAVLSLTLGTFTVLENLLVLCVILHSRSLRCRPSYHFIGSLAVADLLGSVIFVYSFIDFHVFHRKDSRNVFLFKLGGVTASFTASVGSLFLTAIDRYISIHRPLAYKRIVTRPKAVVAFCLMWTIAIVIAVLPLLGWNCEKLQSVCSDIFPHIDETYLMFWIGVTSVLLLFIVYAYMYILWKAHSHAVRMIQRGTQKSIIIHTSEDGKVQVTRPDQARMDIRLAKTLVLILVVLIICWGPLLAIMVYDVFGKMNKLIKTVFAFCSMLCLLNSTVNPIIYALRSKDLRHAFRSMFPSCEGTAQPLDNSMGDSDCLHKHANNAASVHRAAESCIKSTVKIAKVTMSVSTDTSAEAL

Regarding `CCCS(=O)(=O)Nc1ccc2c(c1)nc(C(C)(C)C)n2CC1CCC(F)(F)CC1`, the figures for the microsomal CLint at 1.6 µM in data set [1] and in data set [2] (setting [6]) were 8.04 µL/min/mg and 10.7 µL/min/mg, respectively. Moreover, the solubility at 24 h in data set [3] is 3.79 µM (≈ 1.62 µg/mL).

Turning to `CCS(=O)(=O)Nc1ccc2c(c1)nc(C(C)(C)C)n2CC1CCC(F)(F)CC1`, the microsomal CLint at 1.6 µM was found to be 11.7 µL/min/mg in data set [1] and 5.76 µL/min/mg in data set [2] (setting [6]). In data set [3], this molecule came in with a solubility at 24 h of 7.36 µM (≈ 3.04 µg/mL).

For the molecule `CC(C)(C)c1nc2cc(NS(C)(=O)=O)ccc2n1CC1CCC(F)(F)CC1`, the microsomal CLint at 1.6 µM in data set [1] was 23.4 µL/min/mg; in data set [2] (setting [6]) it was 7.41 µL/min/mg. The same molecule yielded a solubility at 24 h in data set [3] of 4.3 µM (≈ 1.72 µg/mL).

Take `CC(C)(C)c1nc2cc(NS(=O)(=O)C3CC3)ccc2n1CC1CCC(F)(F)CC1`: the microsomal CLint at 1.6 µM in data set [1] is 10.2 µL/min/mg; in data set [2] (setting [6]) it was 7.77 µL/min/mg. In data set [3], this molecule registered a solubility at 24 h of 5.93 µM (≈ 2.52 µg/mL).

As to `CC(F)(F)c1nc2cc(NS(=O)(=O)C3CC3)ccc2n1CC1CCC(F)(F)CC1`, the microsomal CLint at 1.6 µM in data set [1] is less than 4 µL/min/mg; in data set [2] (setting [6]) it was 5.27 µL/min/mg. In data set [3], this molecule yielded a solubility at 24 h of 51.9 µM (≈ 22.5 µg/mL).

As for `CCS(=O)(=O)Nc1ccc2c(c1)nc(C(C)(C)C)n2CC1CCC(F)CC1` (centres unmarked), the microsomal CLint at 1.6 µM in data set [1] was 62.6 µL/min/mg; in data set [2] (setting [6]), 5.72 µL/min/mg. Further, in data set [3], the solubility at 24 h was 353 µM (≈ 140 µg/mL).

For the molecule `CC(C)(C)c1nc2cc(NS(=O)(=O)C(C)(C)C)ccc2n1CC1CCC(F)(F)CC1`, the results for the microsomal CLint at 1.6 µM in data set [1] and in data set [2] (setting [6]) were 15.4 µL/min/mg and 8.03 µL/min/mg, respectively. In data set [3], this molecule had a solubility at 24 h of 0.61 µM (≈ 0.269 µg/mL).

Regarding `CC(F)(F)c1nc2cc(NS(=O)(=O)C(C)(C)C)ccc2n1CC1CCC(F)(F)CC1`, the microsomal CLint at 1.6 µM was 6.87 µL/min/mg in data set [1] and less than 4 µL/min/mg in data set [2] (setting [6]). This molecule also registered a solubility at 24 h in data set [3] of 0.51 µM (≈ 0.229 µg/mL).

`CC(C)(C)c1nc2cc(NS(=O)(=O)C3CC3)ccc2n1CC1CCC(F)CC1` (centres unmarked): in data set [2] (setting [6]), the microsomal CLint at 1.6 µM was less than 4 µL/min/mg. In data set [3], the solubility at 24 h was 233 µM (≈ 95 µg/mL).

With `CC(C)(C)c1nc2cc(NS(=O)(=O)C(C)(C)C)ccc2n1CC1CCC(F)CC1` (centres unmarked), in data set [2] (setting [6]), the microsomal CLint at 1.6 µM is 11.5 µL/min/mg. The molecule further returned a solubility at 24 h in data set [3] of 154 µM (≈ 65.3 µg/mL).

In data set [4], `CCS(=O)(=O)Nc1ccc2c(c1)nc(C(C)(C)C)n2CC1CCC(F)CC1` (single isomer, unassigned) [Isomer A, N-{2-tert-Butyl-1-[(4-fluorocyclohexyl)methyl]-1H-benzimidazol-5-yl}ethanesulfonamide (isomers)] came in with a Ki of 148 nM. For the same molecule, the “Sol. pH 7.4” value in data set [3] (listed as A) turned out to be 64 μM.

`CCS(=O)(=O)Nc1ccc2c(c1)nc(C(C)(C)C)n2CC1CCC(F)CC1` (single isomer, unassigned) [Isomer B, N-{2-tert-Butyl-1-[(4-fluorocyclohexyl)methyl]-1H-benzimidazol-5-yl}ethanesulfonamide (isomers)]: it took 4.9 nM to reach a half-maximal effect in data set [5] (EC50). The Emax in data set [5] (maximal stimulation with 10 μM Win 55,212-2) is 103%. This molecule also displayed a Ki in data set [4] of 14.8 nM. The microsomal CLint at 1.6 µM in data set [2] (pH 7.4, read-out: hClint) was found to be 7.7 µL/min/mg. Further, the “Sol. pH 7.4” value in data set [3] (listed as B) is recorded as 381 μM.

For orientation: solubility means the dissolved amount per volume that the medium holds. A higher solubility goes with much dissolved substance. By Ki is commonly meant a dissociation constant, usually derived from enzyme kinetics or from competition with a known ligand. Broadly, the EC50 is the concentration at which the effect is half-maximal. A word on the Emax: it is the greatest response seen or fitted, relative to the assay's reference.

The values above are taken from US7550495B2 (priority 2004, dated 2009).
